# Experimental data published in ChEMBL document CHEMBL1201862, “PubChem BioAssay data set” (2004).
# Active and inactive are the calls of the source.
# What was measured:
# [1] = Trypanosoma cruzi growth suppression in host cells – NIH3T3 host cells, beta-gal luminescence, confirmation (AID 2044); format: functional, cell-based;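 note: intracellular parasites grown in NIH/3T3 mouse fibroblasts as host cells; luminescent beta-galactosidase reporter signal from transgenic T. cruzi replicating inside host cells; inhibitors lower the luminescence signal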
# [2] = NIH3T3 cell viability loss – ATP luminescence, mouse fibroblasts, counter-screen, dose response (AID 2010); format: functional, cell-based;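 note: cells exposed to compound for about 90 hours before reading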
# Escherichia coli [3] = test: microbe, parasite or virus in culture
# Escherichia coli [4] = test: microbe, parasite or virus in culture; remark: listed apart in the source
# [5] = target: T1, Ubiquitin-conjugating enzyme E2 N (Homo sapiens, UniProt P61088); format: functional;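 note: Dose-response confirmation in a TR-FRET assay detecting UBC13-driven polyubiquitin chain formation, inhibition measured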
# T1 sequence (P61088 whole entry): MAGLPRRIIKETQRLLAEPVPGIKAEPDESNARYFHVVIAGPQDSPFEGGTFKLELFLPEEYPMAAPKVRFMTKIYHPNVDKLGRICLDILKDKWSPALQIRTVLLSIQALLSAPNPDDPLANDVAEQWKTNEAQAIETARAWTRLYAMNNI
# [6] = target: T2, Microphthalmia-associated transcription factor (Homo sapiens, UniProt O75030); test: reducers of TRPM1 reporter luminescence, concentration series – cell-based, SK-MEL-5, cherry-picked, set 3, MITF inhibitor project, dose response (AID 493073); format: functional;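 note: SK-MEL-5 melanoma cells with luciferase driven by the MITF target TRPM1 promoter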
# T2 sequence (O75030 whole entry): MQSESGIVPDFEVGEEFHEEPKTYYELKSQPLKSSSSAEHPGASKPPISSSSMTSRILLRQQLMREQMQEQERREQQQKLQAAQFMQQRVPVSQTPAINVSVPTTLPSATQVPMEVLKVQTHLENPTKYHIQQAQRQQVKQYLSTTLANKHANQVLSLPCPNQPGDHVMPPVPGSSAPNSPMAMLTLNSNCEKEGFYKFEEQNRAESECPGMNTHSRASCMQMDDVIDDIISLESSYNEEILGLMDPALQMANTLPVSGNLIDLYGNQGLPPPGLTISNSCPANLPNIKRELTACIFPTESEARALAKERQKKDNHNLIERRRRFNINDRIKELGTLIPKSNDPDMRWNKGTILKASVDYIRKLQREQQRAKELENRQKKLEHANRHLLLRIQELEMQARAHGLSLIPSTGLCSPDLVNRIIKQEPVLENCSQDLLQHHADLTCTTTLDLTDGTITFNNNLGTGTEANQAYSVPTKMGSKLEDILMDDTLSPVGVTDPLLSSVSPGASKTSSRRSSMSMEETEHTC
# A-375 = test: proliferation inhibition in MITF-low A375 cells – cell-based, cherry-pick samples, set 2, counter-screen for MITF modulator project, dose response (AID 540335); format: functional; settings: Homo sapiens
# [7] = luciferase reporter signal suppression in cells – H4 neuroglioma cells, luminescence, dose response (AID 1990); format: functional, cell-based
# [8] = target: T3, RNA-binding protein pos-1 (Caenorhabditis elegans, UniProt G5EF15); test: disruptors of C. elegans POS-1 RNA interaction – biochemical, fluorescence polarization, dose response (AID 1964);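 note: purified POS-1 fused to maltose binding protein made in E. coli; potency of compounds blocking POS-1 binding to fluorescent RNA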
# T3 sequence (G5EF15 whole entry): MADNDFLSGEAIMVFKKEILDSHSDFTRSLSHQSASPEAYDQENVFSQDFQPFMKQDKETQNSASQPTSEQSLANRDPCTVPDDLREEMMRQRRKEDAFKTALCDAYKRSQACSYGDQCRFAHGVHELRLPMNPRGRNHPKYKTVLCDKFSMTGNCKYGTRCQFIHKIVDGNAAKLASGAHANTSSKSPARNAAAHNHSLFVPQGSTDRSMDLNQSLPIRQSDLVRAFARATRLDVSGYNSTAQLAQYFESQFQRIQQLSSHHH
# [9] = Luminescence Cell-Based Dose Response HTS to Identify Inhibitors of 5'UTR Stem-Loop Driven Prion Protein mRNA Translation in H4 Neuroglioblastoma Cells. [Related pubchem assays: 1827 (Project Summary), 1813 (Primary HTS)]; format: functional
# [10] = target: T4, Zinc finger protein mex-5 (Caenorhabditis elegans, UniProt Q9XUB2); test: potency of MEX-5 RNA-binding blockers – biochemical, C. elegans, fluorescence polarization, dose response (AID 1960)
# T4 sequence (Q9XUB2 whole entry): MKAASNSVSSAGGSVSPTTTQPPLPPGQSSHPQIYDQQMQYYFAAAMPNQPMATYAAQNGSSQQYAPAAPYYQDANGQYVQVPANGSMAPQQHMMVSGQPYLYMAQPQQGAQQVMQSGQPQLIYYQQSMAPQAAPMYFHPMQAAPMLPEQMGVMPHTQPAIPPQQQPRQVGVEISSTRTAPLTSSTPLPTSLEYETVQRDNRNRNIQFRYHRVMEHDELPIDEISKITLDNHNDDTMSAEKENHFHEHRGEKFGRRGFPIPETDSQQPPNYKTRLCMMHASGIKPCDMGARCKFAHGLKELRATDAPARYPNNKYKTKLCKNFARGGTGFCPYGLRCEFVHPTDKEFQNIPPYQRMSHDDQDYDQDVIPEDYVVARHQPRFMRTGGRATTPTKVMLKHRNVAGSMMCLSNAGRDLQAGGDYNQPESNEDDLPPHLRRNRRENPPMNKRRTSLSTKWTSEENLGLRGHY
# [11] = alpha-synuclein stem-loop luciferase translation blockers – H4 neuroglioma cells, luminescence, confirmation (AID 1988); format: functional, cell-based
# Large T antigen = Large T antigen (Simian virus 40, UniProt P03070); format: functional, Betapolyomavirus macacae;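 note: Confirmatory-stage PubChem screen for compounds that inhibit SV40 T antigen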
# CAAX prenyl protease 2 = target: T5, CAAX prenyl protease 2 (Saccharomyces cerevisiae S288c, UniProt Q03530); format: biochemical
# T5 sequence (Q03530 whole entry): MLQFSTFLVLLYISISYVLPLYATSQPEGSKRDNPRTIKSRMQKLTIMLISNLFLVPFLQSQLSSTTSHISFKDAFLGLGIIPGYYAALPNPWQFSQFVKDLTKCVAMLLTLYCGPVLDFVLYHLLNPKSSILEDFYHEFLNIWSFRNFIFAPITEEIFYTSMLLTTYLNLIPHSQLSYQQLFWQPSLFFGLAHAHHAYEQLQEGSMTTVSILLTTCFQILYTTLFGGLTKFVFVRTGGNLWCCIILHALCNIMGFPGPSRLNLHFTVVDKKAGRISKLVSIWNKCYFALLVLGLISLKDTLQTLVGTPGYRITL
# [12] = target: FAD-linked sulfhydryl oxidase ALR (Homo sapiens, UniProt P55789); test: ALR-catalysed DTT oxidation blockers – biochemical, H2O2 detection, luminescence, cherry-pick, dose response (AID 493248)
# Hexokinase HKDC1 = target: T6, Hexokinase HKDC1 (Homo sapiens, UniProt Q2TB90); test: inhibition of HKDC1 glucose phosphorylation – biochemical, W721R variant, dose response (AID 504729); format: functional
# T6 sequence (Q2TB90 whole entry): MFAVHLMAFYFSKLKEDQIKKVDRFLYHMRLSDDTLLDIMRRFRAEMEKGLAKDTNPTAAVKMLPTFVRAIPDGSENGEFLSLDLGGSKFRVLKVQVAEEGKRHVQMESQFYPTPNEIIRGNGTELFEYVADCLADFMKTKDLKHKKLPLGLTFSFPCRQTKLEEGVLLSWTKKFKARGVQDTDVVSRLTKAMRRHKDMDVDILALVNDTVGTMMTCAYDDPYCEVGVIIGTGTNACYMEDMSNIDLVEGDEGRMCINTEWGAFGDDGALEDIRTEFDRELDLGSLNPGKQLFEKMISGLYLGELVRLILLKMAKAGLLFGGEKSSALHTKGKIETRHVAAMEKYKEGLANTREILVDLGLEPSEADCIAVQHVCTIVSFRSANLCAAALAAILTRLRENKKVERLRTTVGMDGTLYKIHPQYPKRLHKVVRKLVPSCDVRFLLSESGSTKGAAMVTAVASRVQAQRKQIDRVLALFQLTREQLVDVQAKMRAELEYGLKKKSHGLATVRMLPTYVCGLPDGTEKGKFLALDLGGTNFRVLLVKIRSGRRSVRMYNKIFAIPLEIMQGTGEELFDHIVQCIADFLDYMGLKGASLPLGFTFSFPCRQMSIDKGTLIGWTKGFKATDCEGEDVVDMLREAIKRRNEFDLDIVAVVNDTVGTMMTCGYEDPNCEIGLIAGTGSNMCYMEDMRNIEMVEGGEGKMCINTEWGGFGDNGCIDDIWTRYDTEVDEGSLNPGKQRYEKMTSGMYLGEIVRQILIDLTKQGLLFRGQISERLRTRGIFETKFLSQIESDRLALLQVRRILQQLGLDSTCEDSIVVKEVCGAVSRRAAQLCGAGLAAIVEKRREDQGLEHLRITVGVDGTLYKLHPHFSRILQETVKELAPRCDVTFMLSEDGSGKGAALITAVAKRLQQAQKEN
# [13] = toxicity toward cultured mammalian cells – cell-based, plate reader, cherry-pick samples, cytotoxicity control, dose response (AID 504397); format: functional
# Protein RecA = target: T7, Protein RecA (Mycobacterium tuberculosis, UniProt P9WHJ3); test: Fluorescence Cell-Free Homogeneous Dose Retest to Identify Inhibitors of RecA-Intein Splicing Activity. [Related pubchem assays (depositor defined):AID2097, AID2223, AID489010, AID492950]; format: functional
# T7 sequence (P9WHJ3 whole entry): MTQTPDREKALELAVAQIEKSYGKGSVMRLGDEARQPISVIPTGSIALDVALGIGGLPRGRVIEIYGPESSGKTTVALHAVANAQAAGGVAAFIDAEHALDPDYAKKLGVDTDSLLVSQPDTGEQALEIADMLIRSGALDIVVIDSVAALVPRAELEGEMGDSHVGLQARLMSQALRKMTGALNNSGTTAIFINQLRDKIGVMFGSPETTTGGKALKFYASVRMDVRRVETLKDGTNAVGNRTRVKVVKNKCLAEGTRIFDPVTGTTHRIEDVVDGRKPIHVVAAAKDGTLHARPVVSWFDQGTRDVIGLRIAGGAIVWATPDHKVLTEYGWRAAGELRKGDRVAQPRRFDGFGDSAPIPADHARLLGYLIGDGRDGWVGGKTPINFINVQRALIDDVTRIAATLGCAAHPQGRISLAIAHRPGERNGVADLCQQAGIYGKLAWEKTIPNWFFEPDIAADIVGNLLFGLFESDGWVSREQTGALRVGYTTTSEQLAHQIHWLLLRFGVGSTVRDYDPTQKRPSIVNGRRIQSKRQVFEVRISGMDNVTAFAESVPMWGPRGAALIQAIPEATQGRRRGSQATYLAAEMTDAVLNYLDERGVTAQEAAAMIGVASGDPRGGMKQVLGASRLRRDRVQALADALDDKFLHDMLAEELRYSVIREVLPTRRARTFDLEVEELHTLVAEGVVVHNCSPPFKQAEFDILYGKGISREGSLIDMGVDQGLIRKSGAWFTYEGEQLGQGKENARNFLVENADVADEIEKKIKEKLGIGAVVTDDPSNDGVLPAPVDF
# [14] = target: Dual specificity tyrosine-phosphorylation-regulated kinase 1A (Rattus norvegicus, UniProt Q63470); format: biochemical, Homo sapiens
# Sequence of Large T antigen (P03070 whole entry): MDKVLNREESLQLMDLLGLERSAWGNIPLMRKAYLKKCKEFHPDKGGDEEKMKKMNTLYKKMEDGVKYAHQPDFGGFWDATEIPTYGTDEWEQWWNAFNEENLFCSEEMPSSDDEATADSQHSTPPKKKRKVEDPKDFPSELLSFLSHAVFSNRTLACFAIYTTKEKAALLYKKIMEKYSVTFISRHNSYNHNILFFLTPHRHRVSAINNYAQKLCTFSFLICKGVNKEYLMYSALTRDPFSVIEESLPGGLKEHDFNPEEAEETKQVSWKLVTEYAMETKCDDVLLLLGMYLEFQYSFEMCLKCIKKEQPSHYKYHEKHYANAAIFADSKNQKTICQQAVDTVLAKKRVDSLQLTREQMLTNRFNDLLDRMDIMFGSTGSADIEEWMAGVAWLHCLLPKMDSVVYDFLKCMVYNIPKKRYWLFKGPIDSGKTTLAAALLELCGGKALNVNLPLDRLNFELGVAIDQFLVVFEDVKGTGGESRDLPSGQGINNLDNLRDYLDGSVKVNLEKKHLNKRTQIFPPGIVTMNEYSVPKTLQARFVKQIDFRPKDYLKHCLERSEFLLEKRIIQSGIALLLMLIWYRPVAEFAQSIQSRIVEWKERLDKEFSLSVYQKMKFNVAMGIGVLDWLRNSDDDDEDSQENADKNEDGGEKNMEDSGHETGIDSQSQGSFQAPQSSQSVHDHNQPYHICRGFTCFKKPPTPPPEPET
# Sequence of FAD-linked sulfhydryl oxidase ALR (P55789 whole entry): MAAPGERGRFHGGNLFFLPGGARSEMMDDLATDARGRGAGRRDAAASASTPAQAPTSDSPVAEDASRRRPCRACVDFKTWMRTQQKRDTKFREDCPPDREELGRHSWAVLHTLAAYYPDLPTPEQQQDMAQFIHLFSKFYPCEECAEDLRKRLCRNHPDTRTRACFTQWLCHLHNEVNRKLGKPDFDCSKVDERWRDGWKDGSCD
smiles,measurement,setting,value
N#C/C(=C\c1ccc(N2CCCCC2)c([N+](=O)[O-])c1)c1nn(-c2ccccc2)c(N)c1C#N,EC50,[1],1.81 µM (active)
same,EC50,[2],> 30 µM (not active)
same,AC50,Escherichia coli [3],26.2 µM (active)
same,AC50,Escherichia coli [4],> 380 µM (inactive)
Cc1cccc(/C=C2/Sc3ccc(C(=O)NCCN4CCCC4)cc3NC2=O)c1,IC50,[5],> 20 µM (inactive)
same,AC50,[6],18.4 µM (active)
same,AC50,A-375,21.1 µM (active)
CN1c2ccc(C=O)c3c(C=O)ccc(c23)N(C)C1(C)C,EC50,[7],17.8 µM (active)
same,EC50,[8],74 µM (inconclusive)
same,EC50,[9],15.9 µM (active)
same,EC50,[10],5.37 µM (inconclusive)
same,EC50,[11],> 120 µM (not active)
same,IC50,Large T antigen,23 µM (active)
same,AC50,CAAX prenyl protease 2,10.5 µM (active)
same,AC50,[12],1.54 µM (active)
same,IC50,Hexokinase HKDC1,13.1 µM (active)
same,AC50,[13],45.7 µM (active)
same,EC50,Protein RecA,59.9 µM (inconclusive)
same,AC50,[14],0.199 µM (active)
